Data reported in a melting point compilation (Tetko et al.).

| Compound | melting point |
| --- | --- |
| CNC(=O)CCC(F)(F)F | 111 to 113 °C |
| O=Cc1ccccc1OCC(=O)NCC1CC1 | 93 to 95 °C |
| O=C(NCCc1ccc(F)cc1)C1Cc2ccccc2CN1 (stereo not given) | 102 to 104 °C |
| CC(C)(NC(=O)c1ccccc1)C(N)=S | 165 to 167 °C |
| CC(C)(C)S(=O)(=O)Cc1cccc(N)c1 | 175 to 177 °C |
| COc1ccc(CCC(=O)O)c(OC)c1OC | 73 to 75 °C |
| COC(=O)c1cc([N+](=O)[O-])cc([N+](=O)[O-])c1OC | 69 to 71 °C |
| Nc1ccc(NS(=O)(=O)c2c(Cl)cccc2Cl)cc1 | 161 to 163 °C |
| Cc1cc(F)c(S(=O)(=O)Cl)cc1[N+](=O)[O-] | 64 to 66 °C |
| CCS(=O)(=O)Nc1ccc(N)cc1C | 101 to 103 °C |
| CN(C)S(=O)(=O)c1ccc2c(c1)CCCN2 | 160 to 162 °C |
| CSc1ccc(C(=O)CCC(=O)O)cc1 | 152 to 154 °C |
| NC(=O)OCC(F)(F)F | 42 to 44 °C |
| CC(C)(O)c1ccc(O)cc1 | 104 to 106 °C |
| Cc1c(C(=O)O)oc2c(Cl)cccc12 | 229 to 231 °C |
| Nc1ccnc(OC2CCCCC2)c1 | 114 to 116 °C |
| Cc1ccc(N)cc1S(=O)(=O)N(C)C | 80 to 84 °C |
| O=C(O)Cn1c(=O)oc2cc([N+](=O)[O-])ccc21 | 214 to 216 °C |
| O=C(O)C1CC(=O)N(c2ccc3c(c2)OCCO3)C1 (stereo not given) | 221 to 223 °C |
| N#Cc1ccccc1S(=O)(=O)N1CCC(C(=O)O)CC1 | 150 to 152 °C |
| CC(C)(C)C(Br)C(N)=O (stereo not given) | 91 to 93 °C |
| CC(C)(C)OC(=O)NC1CCC(=O)CC1 | 113 to 115 °C |
| COC(C)c1ncc(C(=O)O)s1 (stereo not given) | 131 to 133 °C |
| OC1CCCC1n1cccn1 (stereo not given) | 48 to 50 °C |
| O=C(O)c1ccc(-c2nc(C3CC3)n[nH]2)cc1 | 237 to 239 °C |

| Compound | melting point |
| --- | --- |
| N#CCC(=O)c1cc2ccccc2o1 | 146 to 148 °C |
| CCOC(=O)c1cc(Cl)cc(Br)c1N | 57 to 59 °C |
| COc1ccc(C)cc1-c1csc(N)n1 | 205 to 207 °C |
| CC(NC(=O)c1ccc(Br)o1)C(=O)O (stereo not given) | 169 to 171 °C |
| O=C(CCl)Nc1ccnn1Cc1ccccc1 | 99 to 101 °C |
| CC1CSc2ccc(Br)cc2C1=O (stereo not given) | 65 to 67 °C |
| Cc1ccc(N)cc1S(N)(=O)=O | 151 to 153 °C |
| O=C(O)C1CCC(n2cccc2)CC1 (stereo not given) | 143 to 145 °C |
| CN(C)S(=O)(=O)c1ccc(N)cc1 | 119 to 162 °C |
| Nc1ncccc1OCC1CCCCC1 | 117 to 119 °C |
| O=C(O)Cc1csc(-c2ccccc2)n1 | 89 to 91 °C |
| Nc1cccc(OCc2cccnc2)c1 | 97 to 99 °C |
| Cc1cccc(Cn2cccc(C(=O)O)c2=O)c1 | 189 to 191 °C |
| O=C(Nc1ccc([N+](=O)[O-])cc1Cl)OCC(F)(F)F | 132 to 134 °C |
| Nc1cccc(C(=O)N2CCC(CO)CC2)c1 | 155 to 157 °C |
| O=C(O)CCCCc1ccc(O)c(O)c1 | 93 to 95 °C |
| CC(C)c1c(C(=O)O)cnn1-c1cccc(Cl)c1 | 161 to 163 °C |
| N#Cc1cccc(N2CCOC2=O)c1 | 102 to 104 °C |
| Nc1ccc(C(=O)O)cc1CCCC(=O)O | 203 to 205 °C |
| N#CCC1=NCCN1 | 84 to 86 °C |
| CS(=O)(=O)Cc1cccc(S(=O)(=O)Cl)c1 | 142 to 144 °C |
| Cc1cc(Br)ccc1OCc1ccccc1 | 56 to 58 °C |
| COCCN(CC(=O)O)C(=O)OC(C)(C)C | 76 to 78 °C |
| CC(Oc1cccnc1)C(=O)O (stereo not given) | 126 to 128 °C |
| COc1cccc(-n2nc(C)c(CCC(=O)O)c2C)c1 | 104 to 115 °C |

| Compound | melting point |
| --- | --- |
| O=[N+]([O-])c1cnccc1NC1CC1 | 105 to 107 °C |
| CCc1ccc2nc(N)sc2c1 | 105 to 107 °C |
| Cc1cc(C)c2ncc(C#N)c(Cl)c2c1 | 141 to 143 °C |
| Nc1nn2cc(-c3ccccc3)nc2c2ccccc12 | 215 to 217 °C |
| CCCc1ccc(-c2csc(N)n2)cc1 | 115 to 117 °C |
| CC(C)Nc1cccc(O)c1 | 95 to 97 °C |
| O=C(O)CCCOc1ccc(S(=O)(=O)Cl)cc1Cl | 134 to 136 °C |
| CC(NC(=O)c1cc(-c2ccccc2)on1)C(=O)O (stereo not given) | 164 to 166 °C |
| CN1CCN(CCc2ccc(N)cc2)CC1 | 64 to 66 °C |
| N#Cc1ccc(Br)cc1C(F)(F)F | 35 to 37 °C |
| Nc1ccnc(Sc2ccccn2)c1 | 99 to 101 °C |
| OC1CCC(c2ccccc2)CC1 (stereo not given) | 117 to 119 °C |
| O/N=C(\Cc1nccn1C(F)F)c1ccccc1 | 150 to 152 °C |
| Cc1cc(=O)[nH]c(-c2ccncc2)n1 | 241 to 243 °C |
| COc1ccccc1Nc1nc(N)nc(CCl)n1 | 160 to 162 °C |
| CN(C)S(=O)(=O)c1ccc(Cl)c(N)c1 | 119 to 121 °C |
| O=C(O)CNC(=O)CCC1CCCC1 | 112 to 114 °C |
| Cc1cc(C(=O)O)ccc1S(N)(=O)=O | 255 to 257 °C |
| O=C(O)C(S)c1ccccc1 (stereo not given) | 58 to 60 °C |
| COC(=O)c1ccc(S(N)(=O)=O)cc1Cl | 124 to 126 °C |
| CC(C)NS(=O)(=O)c1ccc(Cl)c(C(=O)O)c1 | 147 to 149 °C |
| Cc1nc(-c2ccccc2Cl)sc1C(=O)O | 217 to 219 °C |
| CC(=O)N1CCN(CC(N)=S)CC1 | 199 to 201 °C |
| OCc1ccccc1Oc1ccc(I)cc1 | 65 to 67 °C |
| O=C(O)CCC(=O)c1ccc2ccc3cccc4ccc1c2c34 | 184 to 186 °C |

| Compound | melting point |
| --- | --- |
| O=Cc1ccc(OC(=O)c2cccc([N+](=O)[O-])c2)cc1 | 143 to 145 °C |
| Cc1cccc(OCC(=O)NN)c1 | 109 to 111 °C |
| O=c1c(Cl)c(Cl)cnn1Cc1ccccc1 | 87 to 89 °C |
| Nc1ncnc2c(F)cc(Br)cc12 | 343 to 345 °C |
| CC1C(=O)NCCN1C(=O)c1ccco1 (stereo not given) | 149 to 151 °C |
| CC1CCC(=CC(=O)O)CC1 (stereo not given) | 61 to 63 °C |
| C=CCn1c(C)nnc1S | 264 to 266 °C |
| Cn1cc(-c2cccc(C(=O)O)c2)cn1 | 213 to 215 °C |
| Cc1ccc(-n2c(C)cc(C=O)c2C)cc1 | 102 to 104 °C |
| Brc1cnc2ncnn2c1 | 184 to 186 °C |
| COc1ccc([N+](=O)[O-])cc1NS(=O)(=O)c1ccc(Cl)c(C(=O)O)c1 | 221 to 223 °C |
| COc1cc(C(=O)O)ccc1OCc1ccc(Cl)cc1 | 221 to 223 °C |
| CCC(Br)C(N)=O (stereo not given) | 108 to 110 °C |
| Cc1ccc(-c2ccsc2C(=O)NN)cc1 | 270 to 273 °C |
| O=Cc1ccc(-c2ccc(C(F)(F)F)cc2)s1 | 124 to 126 °C |
| CCn1c(C(=O)O)cc2ccccc21 | 177 to 179 °C |
| Nc1ncncc1-c1ccc(Cl)cc1 | 195 to 197 °C |
| O=C(c1ccc(Br)cc1)c1ccccc1F | 35 to 37 °C |
| NC(=O)CNC(=O)c1cccc(O)c1 | 179 to 181 °C |
| CCc1cccc(N2CC(C(=O)O)CC2=O)c1 (stereo not given) | 120 to 122 °C |
| NC(=O)Nc1cccc(F)c1C(=O)O | 149 to 151 °C |
| COC(=O)C1=C(C)NC(C)=C(C(=O)OC)C1C(=O)O | 128 to 130 °C |
| O=C(CO)N1CCOCC1 | 77 to 79 °C |
| COc1cccc(C(=O)NN)c1OC | 77 to 79 °C |
| NS(=O)(=O)c1ccccc1-c1ccccc1 | 116 to 118 °C |

| Compound | melting point |
| --- | --- |
| CCCCN(C)c1ccc(C(=O)O)cc1 | 134 to 136 °C |
| N#Cc1ccc(Oc2cccnc2)cc1 | 50 to 52 °C |
| Cn1nc(-c2ccccn2)c(-c2ccc(F)cc2)c1N | 164 to 166 °C |
| CC(=O)c1ccc(S(=O)(=O)N2CCCCC2C(=O)O)cc1 (stereo not given) | 132 to 134 °C |
| CC1(n2cc(C=O)cn2)CCS(=O)(=O)C1 (stereo not given) | 84 to 86 °C |
| CCOc1ccc(S(=O)(=O)NCC(=O)O)cc1 | 139 to 141 °C |
| NS(=O)(=O)c1ccc(Cl)nc1Cl | 189 to 191 °C |
| O=C1CC2(CCCC2)C(=O)N1 | 105 to 107 °C |
| O=C1Nc2ccccc2NC1CO (stereo not given) | 140 to 142 °C |
| O=C(O)c1cnoc1-c1ccc(Cl)cc1 | 205 to 207 °C |
| Cc1sc(N)nc1-c1cccc([N+](=O)[O-])c1 | 175 to 177 °C |
| N#CCc1ccc(OCCBr)cc1 | 52 to 54 °C |
| O=C1CCCCC(N2C(=O)c3ccccc3C2=O)C1 (stereo not given) | 119 to 121 °C |
| NC(CC(=O)O)c1cccs1 (stereo not given) | 219 to 221 °C |
| Cc1nnc(-c2cccc(N)c2)o1 | 136 to 138 °C |
| OCCNc1ccc(-c2ccccc2)nn1 | 162 to 164 °C |
| CC(C)(C)OC(=O)Oc1ccc(N)cc1 | 112 to 114 °C |
| CSc1ccc(N)cc1Cl | 74 to 76 °C |
| Cc1nn(C)c(Cl)c1/C=C/C(=O)O | 156 to 158 °C |
| O=C(O)Cc1ccc(S(=O)(=O)Cl)s1 | 85 to 87 °C |
| Cc1cc(C)c2c(c1)c(C)cc1nnc(S)n12 | 262 to 264 °C |
| Cc1nn(-c2ccccc2)cc1C=O | 58 to 60 °C |
| CCOc1cc(C(=O)O)ccn1 | 171 to 173 °C |
| O=C(CCl)NC(c1ccccc1)c1nccs1 (stereo not given) | 108 to 110 °C |
| COC(=O)c1oc(Br)cc1C | 62 to 64 °C |

| Compound | melting point |
| --- | --- |
| O=C1CC(C2CCCCN2)CN1 (stereo not given) | 62 to 64 °C |
| COc1ccc(Cl)cc1/C=C/C(=O)O | 199 to 201 °C |
| CC1CNc2ccccc2N(Cc2ccccc2)C1=O (stereo not given) | 107 to 109 °C |
| Cc1ccc(C#N)c(N2CCOCC2)c1 | 86 to 88 °C |
| O=C1CC(C(=O)O)C(C(=O)O)C1 (stereo not given) | 186 to 188 °C |
| CC(C)(C)n1ncc2c(=O)[nH]cnc21 | 226 to 228 °C |
| O=C1Cc2ccccc2C(=O)N1 | 190 to 192 °C |
| CC(C)(C)CCCC(=O)O | 36 to 38 °C |
| CCOc1ccc(C(=O)CCl)cc1 | 63 to 65 °C |
| N#CC1=C(Cl)CCCC1 | 38 to 40 °C |
| Cc1cc(C(=O)CCl)c(C)n1-c1cccc(Cl)c1 | 116 to 118 °C |
| CCc1ccc(-c2ccc(C=O)o2)cc1 | 45 to 47 °C |
| CCc1ccc(N2CC(C(=O)O)CC2=O)cc1 (stereo not given) | 144 to 148 °C |
| COC(=O)C(C(=O)OC)c1ccc(C(F)(F)F)cc1[N+](=O)[O-] | 63 to 65 °C |
| OCc1ccc2c(c1)CCC2 | 69 to 71 °C |
| O=c1oc2ccccc2n1CCO | 104 to 106 °C |
| COc1cc(C#N)ccc1OCC(=O)O | 154 to 156 °C |
| CNC(=O)c1cc2ccccc2[nH]1 | 221 to 223 °C |
| O=C(O)c1cccc(-c2ccoc2)c1 | 144 to 146 °C |
| ClCc1cc(Br)ccc1Cl | 47 to 49 °C |
